Results on nine compounds are retold here after patent publication US20240158446A1, “CYCLIC COMPOUND HAVING SELECTIVE INHIBITORY ACTION ON KRAS OVER HRAS AND NRAS” (CHUGAI SEIYAKU KABUSHIKI KAISHA, priority 2021, published 2024).

The structures appear in SMILES notation. *1 amine or outer side, *2 acyl side, *3 side chain or, on linkers, in order; H or OH if unused. Where a SMILES comes first, the peptide text is derived from it. Bridges are numbered along the chain shown (N, C = ends). [ ]: non-standard residue; d: D form. The star is where a group is joined. hPhe(3-Cl-4-CF3) = N[C@@H](CCc1ccc(C(F)(F)F)c(Cl)c1)C(=O)O; X52 = CCCN([C@@H](Cc1ccc(OC(F)(F)F)cc1)C(=O)[*:2])[*:1]; NPrPhe(4-CF3) = CCCN[C@@H](Cc1ccc(C(F)(F)F)cc1)C(=O)O; X42 = Cc1ccc(C[C@@H](C(=O)[*:2])N(CC2CCC2)[*:1])cc1; X10 = C=CCN([C@@H](Cc1ccc(C)cc1)C(=O)[*:2])[*:1]; NMeGly(cPent) = CN[C@H](C(=O)O)C1CCCC1; Pro(4S-Me) = C[C@@H]1CN[C@H](C(=O)O)C1; Gly(cPent) = N[C@H](C(=O)O)C1CCCC1; NMeD = CN[C@@H](CC(=O)O)C(=O)O; NMeL = CN[C@@H](CC(C)C)C(=O)O; Morpholide = C1CN(*)CCO1; NMeA = CN[C@@H](C)C(=O)O; Ac5c = NC1(C(=O)O)CCCC1; Aze = O=C(O)[C@@H]1CCN1; Ac3c = NC1(C(=O)O)CC1; NEtG = CCNCC(=O)O; Sar = CNCC(=O)O

Sequence of GDP-bound NRAS wild-type protein (P01111 whole entry): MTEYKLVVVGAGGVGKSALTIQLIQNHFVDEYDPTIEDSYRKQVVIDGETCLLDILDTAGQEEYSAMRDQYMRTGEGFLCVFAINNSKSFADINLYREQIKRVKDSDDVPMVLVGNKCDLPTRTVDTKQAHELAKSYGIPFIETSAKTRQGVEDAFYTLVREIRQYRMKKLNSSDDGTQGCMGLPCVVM

One experiment addresses GDP-bound NRAS wild-type protein (Homo sapiens, UniProt P01111). Kind of experiment: Binding to NRAS by surface plasmon resonance (SPR), Single Cycle Kinetics. The note with it: SPR, GDP-bound NRAS wild-type protein vs GDP-bound KRAS wild-type protein.
As for `CCC[C@H]1C(=O)N[C@@H]([C@H](C)CC)C(=O)N(C)CC(=O)N(C)[C@H]2C/C=C\CCN(C2=O)[C@@H](Cc2ccc(C)cc2)C(=O)N(C)CC(=O)N[C@@H](CCc2ccc(C(F)(F)F)c(Cl)c2)C(=O)N2C[C@H](OCC)C[C@H]2C(=O)NC2(CC(C)(C)C2)C(=O)N(C)[C@@H](CC(C)(C)C)C(=O)N(C)[C@H](C(=O)N(C)C)CC(=O)N1C` [PP2219], the “NRAS/KRAS (ratio of KD value for NRAS to KD value for KRAS)” value was “A (a compound having 10 or more and less than 20 is denoted as A)”.

The target in a further experiment is GDP-bound KRAS wild-type protein (Homo sapiens, UniProt P01116). Description: Binding to KRAS by surface plasmon resonance (SPR), Single Cycle Kinetics. Conditions: SPR Single Cycle Kinetics, GDP-bound KRAS wild-type protein, 1:1 binding model; read-out: KRAS KD.
Sequence of GDP-bound KRAS wild-type protein (P01116 whole entry): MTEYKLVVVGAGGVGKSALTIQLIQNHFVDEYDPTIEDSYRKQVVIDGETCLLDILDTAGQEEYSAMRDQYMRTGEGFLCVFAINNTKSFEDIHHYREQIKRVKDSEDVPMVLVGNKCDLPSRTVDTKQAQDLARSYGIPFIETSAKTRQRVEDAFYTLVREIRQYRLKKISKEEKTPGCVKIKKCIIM
As usually defined, the Kd is the equilibrium constant for the complex coming apart. `CCCN1C(=O)CN(C)C(=O)CN(C)C(=O)[C@H]([C@@H](C)CC)NC(=O)[C@H](CC(C)C)N(C)C(=O)C[C@@H](C(=O)N2CCOCC2)N(C)C(=O)[C@H](C2CCCC2)N(C)C(=O)C2(CCCC2)NC(=O)[C@@H]2CCCN2C(=O)[C@H](CCc2ccc(C(F)(F)F)c(Cl)c2)NC(=O)CN(C)C(=O)[C@@H]1Cc1ccc(OC(F)(F)F)cc1` [PP0137] ([NMeL]I[Sar][Sar][X52][Sar][hPhe(3-Cl-4-CF3)]P[Ac5c][NMeGly(cPent)][NMeD]-Morpholide; lactam N-11): the Kd came out at 0.47 nM.

Take `C=CCN1C(=O)[C@@H]2CCN2C(=O)[C@H](C)N(C)C(=O)[C@H]([C@@H](C)CC)NC(=O)[C@H](CC(C)C)N(C)C(=O)C[C@@H](C(=O)N2CCOCC2)N(C)C(=O)[C@H](C2CCCC2)N(C)C(=O)C2(CCCC2)NC(=O)[C@@H]2CCCN2C(=O)[C@H](CCc2ccc(C(F)(F)F)c(Cl)c2)NC(=O)CN(C)C(=O)[C@@H]1Cc1ccc(C)cc1` [PP0088] ([NMeL]I[NMeA][Aze][X10][Sar][hPhe(3-Cl-4-CF3)]P[Ac5c][NMeGly(cPent)][NMeD]-Morpholide; lactam N-11): the Kd is 0.12 nM.

For `CCCN1C(=O)CN(C)C(=O)CN(CC)C(=O)[C@H]([C@@H](C)CC)NC(=O)[C@H](CC(C)C)N(C)C(=O)C[C@@H](C(=O)N2CCOCC2)N(C)C(=O)[C@H](C2CCCC2)N(C)C(=O)C2(CCCC2)NC(=O)[C@@H]2C[C@H](C)CN2C(=O)[C@H](CCc2ccc(C(F)(F)F)c(Cl)c2)NC(=O)CN(C)C(=O)[C@@H]1Cc1ccc(C(F)(F)F)cc1` [PP0451] ([NMeL]I[NEtG][Sar][NPrPhe(4-CF3)][Sar][hPhe(3-Cl-4-CF3)][Pro(4S-Me)][Ac5c][NMeGly(cPent)][NMeD]-Morpholide; lactam N-11), the Kd amounted to 0.75 nM.

`CC[C@H](C)[C@@H]1NC(=O)[C@H](CC(C)C)N(C)C(=O)C[C@@H](C(=O)N2CCOCC2)N(C)C(=O)[C@H](C2CCCC2)N(C)C(=O)C2(CCCC2)NC(=O)[C@@H]2CCCN2C(=O)[C@H](CCc2ccc(C(F)(F)F)c(Cl)c2)NC(=O)CN(C)C(=O)[C@H](Cc2ccc(C)cc2)N(CC2CCC2)C(=O)[C@@H]2CCN2C(=O)[C@H](C)N(C)C1=O` [PP0083] ([NMeL]I[NMeA][Aze][X42][Sar][hPhe(3-Cl-4-CF3)]P[Ac5c][NMeGly(cPent)][NMeD]-Morpholide; lactam N-11): the Kd is 1.1 nM.

As for `CCCN1C(=O)CN(C)C(=O)CN(C)C(=O)[C@H](C2CCCC2)NC(=O)[C@H](CC(C)C)N(C)C(=O)C[C@@H](C(=O)N2CCOCC2)N(C)C(=O)[C@H](C2CCCC2)N(C)C(=O)C2(CCCC2)NC(=O)[C@@H]2CCCN2C(=O)[C@H](CCc2ccc(C(F)(F)F)c(Cl)c2)NC(=O)CN(C)C(=O)[C@@H]1Cc1ccc(C(F)(F)F)cc1` [PP0251] ([NMeL][Gly(cPent)][Sar][Sar][NPrPhe(4-CF3)][Sar][hPhe(3-Cl-4-CF3)]P[Ac5c][NMeGly(cPent)][NMeD]-Morpholide; lactam N-11), the Kd is 0.25 nM.

In the case of `CCCN1C(=O)[C@@H]2CCN2C(=O)CN(C)C(=O)[C@H]([C@@H](C)CC)NC(=O)[C@H](CC(C)C)N(C)C(=O)C[C@@H](C(=O)N(C)C)NC(=O)[C@H](C2CCCC2)N(C)C(=O)C2(CCCC2)NC(=O)[C@@H]2CCCN2C(=O)[C@H](CCc2ccc(C(F)(F)F)c(Cl)c2)NC(=O)CN(C)C(=O)[C@@H]1Cc1ccc(C(F)(F)F)cc1` [PP0385] ([NMeL]I[Sar][Aze][NPrPhe(4-CF3)][Sar][hPhe(3-Cl-4-CF3)]P[Ac5c][NMeGly(cPent)]D-NMe2; lactam N-11), the Kd is 0.37 nM.

With `CCO[C@@H]1C[C@H]2C(=O)NC3(CC(C)(C)C3)C(=O)N(C)[C@@H](C(CC)CC)C(=O)N(C)[C@H](C(=O)N3CCCCC3)CC(=O)N(C)[C@H]3CCC/C=C/c4ccc(cc4)C[C@@H](C(=O)N(C)CC(=O)N[C@@H](CCc4cc(F)c(C(F)(F)F)c(F)c4)C(=O)N2C1)N1CC/C=C\C[C@@H](C1=O)N(C)C(=O)CN(C)C(=O)[C@H]([C@@H](C)CC)NC3=O` [PP2952], the Kd amounted to 0.79 nM.

As for `CCCN1C(=O)[C@@H]2CCN2C(=O)C2(CC2)NC(=O)[C@H]([C@@H](C)CC)NC(=O)[C@H](CC(C)C)N(C)C(=O)C[C@@H](C(=O)N2CCOCC2)N(C)C(=O)[C@H](C2CCCC2)N(C)C(=O)C2(CCCC2)NC(=O)[C@@H]2CCCN2C(=O)[C@H](CCc2ccc(C(F)(F)F)c(Cl)c2)NC(=O)CN(C)C(=O)[C@@H]1Cc1ccc(C(F)(F)F)cc1` [PP0276] ([NMeL]I[Ac3c][Aze][NPrPhe(4-CF3)][Sar][hPhe(3-Cl-4-CF3)]P[Ac5c][NMeGly(cPent)][NMeD]-Morpholide; lactam N-11), the Kd came out at 150 nM.

Another experiment deals with GDP-bound HRAS wild-type protein (Homo sapiens, UniProt P01112). Description: Binding to HRAS by surface plasmon resonance (SPR), Single Cycle Kinetics. The note with it: SPR, GDP-bound HRAS wild-type protein vs GDP-bound KRAS wild-type protein. For orientation: In SPR one partner is held on a chip, and binding of the other changes the refractive index at the surface.
Sequence of GDP-bound HRAS wild-type protein (P01112 whole entry): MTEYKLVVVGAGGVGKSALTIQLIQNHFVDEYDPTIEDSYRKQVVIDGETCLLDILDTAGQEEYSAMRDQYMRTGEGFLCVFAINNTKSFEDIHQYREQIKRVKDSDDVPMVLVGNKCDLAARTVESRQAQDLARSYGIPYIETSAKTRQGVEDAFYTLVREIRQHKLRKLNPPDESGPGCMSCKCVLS
Take `CCC[C@H]1C(=O)N[C@@H]([C@H](C)CC)C(=O)N(C)CC(=O)N(C)[C@H]2C/C=C\CCN(C2=O)[C@@H](Cc2ccc(C)cc2)C(=O)N(C)CC(=O)N[C@@H](CCc2ccc(C(F)(F)F)c(Cl)c2)C(=O)N2C[C@H](OCC)C[C@H]2C(=O)NC2(CC(C)(C)C2)C(=O)N(C)[C@@H](CC(C)(C)C)C(=O)N(C)[C@H](C(=O)N(C)C)CC(=O)N1C` [PP2219]: the “HRAS/KRAS (ratio of KD value for HRAS to KD value for KRAS)” value is “A (a compound having 10 or more and less than 20 is denoted as A)”.
